Values quoted from earlier work as cited in patent publication US20020012634A1, “Antimicrobial dental materials contraining 2,4,4' -trichloro2' -hydroxydiphenyl ether” (priority 1997, published 2002).

Legend:
[1] = test system: Gram-positive and Gram-negative bacteria as well as fungi, yeasts and viruses
bacteria = settings: long-term experiments
plaque bacteria = settings: toothpaste ingredient, dentifrices

In the case of `Oc1cc(Cl)ccc1Oc1ccc(Cl)cc1Cl` [triclosan, 2,4,4′-trichloro-2′-hydroxydiphenyl ether], the “antimicrobial activity, in words” value [1] is listed as “highly effective antimicrobial with a broad spectrum of activity”, the “development of bacterial resistance” value (bacteria) is listed as “no development of bacterial resistance” and the “solubility in organic solvents” value is listed as “soluble in many organic solvents”. The water solubility was “low” and the “effect against plaque bacteria / plaque” value (plaque bacteria) was “effective against plaque bacteria”.
